Values of other authors in patent publication US6905813B2, “Processing agent for silver halide color photosensitive material and processing method thereof” (Chugai Photo Chemical Co., Ltd., priority 2001, dated 2005).
Like-named read-outs stand apart in the source and are kept apart here.

[1] = Table 1, additives of Example 1
[2] = Table 3, additives of Example 2
[3] = Table 7, additives of Example 4
[4] = Table 5, additives of Example 3

pKa [1]	pKa [2]	pKa [3]	SMILES	pKa [4]
8.74	8.74	8.74	CC(N)CCN (centres unmarked) [1,3-diaminobutane]	
9.44	9.44	9.44	NCCCCN [1,4-diaminobutane]	
			Nc1ccccn1 [2-aminopyridine]	6.79

SMILES	pKa [1]	pKa [2]	pKa [3]	pKa [4]
O=S([O-])[O-].[Na+].[Na+] [Sodium sulfite]	7.19	7.19	7.19	7.19
